Source: patent US20110152267A1, “Compositions and Methods for Treating Hyperproliferative Disorders” (Texas Tech University System, priority 2009, published 2011)

Experiments:
[1] = system: drug-resistant CHLA-90 neuroblastoma cancer cell line; assay: DIMSCAN cytotoxicity dose-response with fenretinide (Examples A, FIGS. 1, 7, 12); format: cell-based, human; conditions: at one or more doses, +96 hrs
Experimental: Cytotoxicity Assay: Cytotoxicity in cell lines was determined using a fluorescence-based assay employing digital imaging microscopy (DIMSCAN)(after Fragala, et al, Mol Cancer Ther, 6:886-897, 2007). DIMSCAN quantitates viable cells which selectively accumulate fluorescein diacetate and is capable of measuring cytotoxicity over a 4-5 log dynamic range by quantifying total fluorescence per well (which is proportional to viable, clonogenic cells) after eliminating background fluorescence using digital thresholding and eosin Y quenching. Briefly, cell lines were seeded into 96-well plates in 100 µL of complete culture medium (10-20% serum) per well. Cells were incubated overnight in 2%, 5% or 20% oxygen (room air) prior to addition of drugs in […] volumes of complete medium to various final drug concentrations in replicates of 12 wells per concentration. In assays employing D-threo-PPMP, PPMP was employed at a fixed, minimally-toxic, final concentration of 10 μM in each well. Control wells received ethanol (final concentration=0.12%-0.20%) in complete medium equivalent to the maximum final ethanol concentration of drug-treated wells. Plates were incubated at various oxygen concentrations to simulate physiological hypoxia (i.e., 2% oxygen=typical solid tumor oxygen levels; 5%=bone marrow oxygen levels for leukemias; 20% room air=supraphysiological oxygen for comparison with typical laboratory culture conditions). Plates were assayed at 3-4 days after initiating drug exposure depending on the growth properties of each cell line, to allow for maximum cell death and outgrowth of surviving cells. To measure cytotoxicity, FDA (stock solution of 1 mg/ml in DMSO) was added, in 50 µL of complete medium per well, to a final concentration of 10 µg/ml. The plates were incubated for an additional 15-30 minutes at 37 C and then 30 µL of eosin Y (0.5% in normal saline) was added per well. Total fluorescence of each well was then measured using digital imaging microscopy. […]

[2] = system: CHLA-266 primitive neuroectodermal tumor (PNET) cell line; assay: DIMSCAN cytotoxicity, fenretinide + L-threo-sphinganines 3:1 (Example B9); format: cell-based, human; conditions: 96 h
Experimental: (§1) Cytotoxicity Assay—Once again, cytotoxicity is determined using the DIMSCAN assay system (R. Proffitt et al., Cytometry 24, 204-213 (1996); T. Frgala et al., Mol Cancer Ther. 6:886-97, 2007). The system employs digital imaging microscopy to quantify viable cells, which selectively accumulate fluorescein diacetate to become brightly fluorescent. The system is capable of measuring cytotoxicity over a 4-5 log dynamic range by quenching the residual fluorescence of dead and dying cells with eosin Y and quantifying the total fluorescence of viable cells using digital thresholding. Measured fluorescence is directly proportionate to the number of viable cells. A comparison of the total fluorescence of a drug-treated cell population to the fluorescence of a similar number of untreated cells yields a survival fraction. In brief, 2000 to 10,000 cells/well (depending on size and growth rates) are replicate plated into 60 wells of a 96-well tissue culture plate in 0.1 mL of whole medium and allowed to attach overnight. Drug(s) are then added in 0.05 mL of whole medium to the final concentrations indicated. Drugs (fenretinide, and various chain length L-threo-sphinganines) were tested both as single agents and in a 3:1 ratio of fenretinide:sphinganine. C18-L-threo-sphinganine, or “safingol,” was also tested and results shown for reference. There are 12 wells treated per drug concentration. Twelve wells receive drug vehicle-only to the appropriate final concentration and serve as controls for the plate. Cells are incubated for 96 hours at 37° C. in ambient air with 5% CO2. Fluorescein diacetate is then added to each well in 0.05 mL media to a final concentration of 8 microgram/mL. Cells are incubated for a further 15 minutes at 37° C. and 0.03 mL of 0.5% eosin Y is added to each well. Total fluorescence of viable cells is then measured by digital imaging microscopy. Results were graphed as the ratio of the fluoresecence of drug-treated wells to non-drug treated control wells (i.e., Survival Fraction). All tests were performed at least twice. Representative results are shown.
(§2) The Combination Index (CI) is a term to describe mathematical modeling of the pharmacologic effects on cytotoxicity (cell death) of two drugs in combination based. Cytotoxic “synergy” is defined as a cell death affect which is greater than would be expected from a simple product of the single agent cytotoxicities alone (i.e. an “additive” effect). By Chou-Talalay analysis, a CI<0.9 on a Fraction Affected (“Fa”, i.e. fraction of cells killed) indicates synergy, with smaller numbers indicating greater synergy; a CI of 0.9-1.1 signifies an additive or near-additive effect; and a CI>1.1 means the drug combination is antagonistic.
Fenretinide and L-threo-sphinganines tested in human primitive neuroectodermal tumor (PNET) (brain cancer) cell line, CHLA-266.

[3] = system: CRL-2091 normal human fibroblast cell line; assay: DIMSCAN cytotoxicity, fenretinide + L-threo-sphinganines 3:1 (Example B1); format: cell-based; conditions: CRL-2091, 20% O2, 96 h
Experimental: as §1, §2
(§3) Fenretinide and L-threo-sphinganines tested in normal human fibroblast (normal skin cell) cell lines, CRL-2091 and CRL-2076.

[4] = system: CRL-2076 normal human fibroblast cell line; assay: as above; format: cell-based; conditions: CRL-2076, 20% O2, 96 h
Experimental: as §1, §2, §3

[5] = system: OE-33 esophageal adenocarcinoma cell line; assay: DIMSCAN cytotoxicity, fenretinide + L-threo-sphinganines 3:1 (Example B19); format: cell-based, human
[6] = 4-HPR 1.5 μM + L-threo-sphinganine 0.5 μM
[7] = 4-HPR 3 μM + L-threo-sphinganine 1 μM
[8] = 4-HPR 6 μM + L-threo-sphinganine 2 μM
[9] = 4-HPR 9 μM + L-threo-sphinganine 3 μM

For CCCCCCCCCCCCCC[C@H](O)[C@@H](N)CO [C17, (2S,3S)-2-amino-1,3-heptadecanediol], the “C.I. (Combination Index) with fenretinide” value [1] was less than 1, the “CI (Combination Index)” value [2, 6] was 0.5 and the “Fa (fraction affected)” value [2, 6] was 0.502. The “CI (Combination Index)” value [2, 7] was 0.5, the “Fa (fraction affected)” value [2, 7] was 0.913 and the “CI (Combination Index)” value [2, 8] was 0.5. The “Fa (fraction affected)” value [2, 8] was 0.990, the “CI (Combination Index)” value [2, 9] was 0.7 and the “Fa (fraction affected)” value [2, 9] was 0.989. The “CI (Combination Index)” value [3, 6] was greater than 1, the “Fa (fraction affected)” value [3, 6] was 0.13 and the “CI (Combination Index)” value [3, 7] was greater than 1. For the same compound, the “Fa (fraction affected)” value [3, 7] was 0.25, the “CI (Combination Index)” value [3, 8] was greater than 1 and the “Fa (fraction affected)” value [3, 8] was 0.13. The “CI (Combination Index)” value [3, 9] was greater than 1, the “Fa (fraction affected)” value [3, 9] was 0.62 and the “CI (Combination Index)” value [4, 6] was greater than 1. For the same compound, the “Fa (fraction affected)” value [4, 6] was 0.05, the “CI (Combination Index)” value [4, 7] was greater than 1 and the “Fa (fraction affected)” value [4, 7] was 0.04. For the same compound, the “CI (Combination Index)” value [4, 8] was greater than 1, the “Fa (fraction affected)” value [4, 8] was 0.09 and the “CI (Combination Index)” value [4, 9] was greater than 1. The “Fa (fraction affected)” value [4, 9] was 0.15, the CI [5, 6] was 1.5 and the Fa [5, 6] was 0.376. It also gave a CI [5, 7] of 1.1, a Fa [5, 7] of 0.767 and a CI [5, 8] of 0.8. For the same compound, the Fa [5, 8] was 0.945, the CI [5, 9] was 0.4 and the Fa [5, 9] was 0.991.
